The record followed here is patent publication US20110251188A1, “ACENAPHTHO HETEROCYCLE COMPOUNDS, CYCLODEXTRIN INCLUSION COMPOUNDS AND COMPLEXES, AND USES IN THE MANUFACTURES OF BH3 PROTEIN ANALOGUE, BCL-2 FAMILY PROTEIN INHIBITORS THEREOF” (DALIAN UNIVERSITY OF TECHNOLOGY, priority 2008, published 2011).

≈ marks a conversion by molar mass, not a printed value.

In general, solubility refers to how much of the substance goes into solution per volume.

T1 sequence (P10415 whole entry, the tested form may be a part): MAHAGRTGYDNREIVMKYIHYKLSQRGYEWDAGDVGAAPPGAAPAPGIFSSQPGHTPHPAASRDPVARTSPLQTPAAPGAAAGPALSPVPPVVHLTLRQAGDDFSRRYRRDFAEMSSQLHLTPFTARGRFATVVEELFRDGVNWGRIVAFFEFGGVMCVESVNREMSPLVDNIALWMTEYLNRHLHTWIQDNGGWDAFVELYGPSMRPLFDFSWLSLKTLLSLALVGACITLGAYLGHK

One data set addresses T1, GST-Bcl-2 protein (Homo sapiens, UniProt P10415).
T1 construct: fused on or other part: GST tag on Bcl-2
In words: fluorescence polarization assay, competitive binding against FAM-Bid peptide. Particulars: Table 3; FAM-Bid competition; table does not say whether Bcl-2 or Mcl-1; read-out: Binding constant. As to the method:
A Bid BH3 peptide (amino acids: 79-99: […]) having 21 amino acids was synthesized and marked with 6-carboxyfluorescein N-succinimidyl ester (FAM) as fluorescent tag (FAM-Bid) at the N-terminal. The reaction system used in the competitive binding experiment was GST-Bcl-2 protein (40 nM) or Mcl-1 protein, which was dissolved in the reaction buffer (100 mM K3PO4, pH 7.5; 100 μg/ml bovine γ albumin; 0.02% sodium azide) together with FAM-Bid polypeptide (5 nM). In a 96-well plate, 100 μL of the reaction system was added into each well. Then 1 μL different concentration of 3-thiomorpholinyl-8-oxo-8H-acenaphtho[1,2-b]pyrrole-9-carbonitrile mother solution to be detected dissolved in DMSO was added thereinto until the final concentration met the experimental design requirements. Meanwhile, two control groups were established, one with the reaction system only contains Bcl-2 or Mcl-1 and FAM-Bid (equivalent to 0% inhibition rate), the other with the reaction system only containing FAM-Bid peptide. After 4 hours of incubation, the 96-well plate was detected by enzyme-labelled meter. The fluorescent polarization value (mP) was tested at […]. Ki value was deduced according to calculation formula. The competitive binding constant between the compound and Bcl-2 was 310 nM.
Background: Polarisation of emitted light reports the rotation of a fluorescent probe.
Consider `N#CC1=C2C(=NC1=O)c1c(Sc3ccc(N)cc3)ccc3c(Sc4ccc(N)cc4)ccc2c13` [3,6-di(4-aminophenylthio)-8-oxo-8 H-acenaphtho[1,2-b]pyrrole-9-carbonitrile], for which the Ki was 7 nM.
On the same count and under the same terms, as for `N#CC1=C2C(=NC1=O)c1cccc3c(Sc4ccc(Br)cc4)ccc2c13` [3-(4-bromophenylthio)-8-oxo-8H-acenaphtho[1,2-b]pyrrole-9-carbonitrile], the figure is 17 nM.

In another data set the test system is MCF-7 cells. In words: cytotoxicity depending on BAX/BAK, MTT, MCF-7 cells with or without BAX/BAK interfering plasmid.
Conditions: not given
Format: cell-based. As to the method: 3 ng of BAX/BAK interfering plasmid was transfected into MCF-7 cells by using calcium phosphate coprecipitation method, 24 hours later, the cells were collected. The expressions after the BAX and BAK proteins interfered with RNA was detected by Western, and the cell groups without plasmid transfection were treated similarly and were set as the control group. The transfected cells were inoculated in a 96-well plate (1×10^5 cells/well), the control experiment of the cell group without plasmid transfection was carried out in parallel. The compound 3-thiomorpholinyl-8-oxo-8 H-acenaphtho[1,2-b]pyrrole-9-carbonitrile to be detected was added thereinto according to the concentration gradient designed before the experiment. 48 hours later, the cellular vitality was detected by MTT. The experimental results were shown in FIG. 6, Gossypol as nonspecific BH3 analogue was treated in parallel.
As to `N#CC1=C2C(=NC1=O)c1c(Sc3ccc(N)cc3)ccc3c(Sc4ccc(N)cc4)ccc2c13` [3,6-di(4-aminophenylthio)-8-oxo-8 H-acenaphtho[1,2-b]pyrrole-9-carbonitrile], the “dependence of cytotoxicity on BAX/BAK” value is “absolute dependence on BAX/BAK”.
With `N#CC1=C2C(=NC1=O)c1cccc3c(Sc4ccc(Br)cc4)ccc2c13` [3-(4-bromophenylthio)-8-oxo-8H-acenaphtho[1,2-b]pyrrole-9-carbonitrile], the “dependence of cytotoxicity on BAX/BAK” value is on record as “absolute dependence on BAX/BAK”.

A further data set concerns Mcl-1. In words: Western blotting, inhibition (downregulation) of Mcl-1 in tumor cells, Example 23. Format: cell-based. The following applies: 6 hours. As to the method:
(§1) The interest protein was detected by the corresponding antibody. The expression of the interest protein in the cells was detected by horseradish peroxidase-labeled secondary antibodies in combination with ECL coloration method. […] The concentration of the protein bands in the Western images were carried out semiquantitative analysis and normalization treatment with KODAK Gel Logic 1500 imaging system software.
A general note: A western blot detects proteins with antibodies after separation by electrophoresis.
Regarding `N#CC1=C2C(=NC1=O)c1c(Sc3ccc(N)cc3)ccc3c(Sc4ccc(N)cc4)ccc2c13` [3,6-di(4-aminophenylthio)-8-oxo-8 H-acenaphtho[1,2-b]pyrrole-9-carbonitrile], the “downregulation of Mcl-1 protein, semiquantitative analysis (band concentration, control = 1)” value (“downregulation of Mcl-1 protein” for short) turned out to be 0.99.
Consider `N#CC1=C2C(=NC1=O)c1cccc3c(Sc4ccc(Br)cc4)ccc2c13` [3-(4-bromophenylthio)-8-oxo-8H-acenaphtho[1,2-b]pyrrole-9-carbonitrile], for which the “downregulation of Mcl-1 protein” value came to 0.99.

Still in this data set, the particulars now being: 12 hours.
With `N#CC1=C2C(=NC1=O)c1c(Sc3ccc(N)cc3)ccc3c(Sc4ccc(N)cc4)ccc2c13` [3,6-di(4-aminophenylthio)-8-oxo-8 H-acenaphtho[1,2-b]pyrrole-9-carbonitrile], the “downregulation of Mcl-1 protein” value is 0.99.
`N#CC1=C2C(=NC1=O)c1cccc3c(Sc4ccc(Br)cc4)ccc2c13` [3-(4-bromophenylthio)-8-oxo-8H-acenaphtho[1,2-b]pyrrole-9-carbonitrile]: the “downregulation of Mcl-1 protein” value came to 0.99.

The data set is the same for the next values; noted with them: 18 hours.
Regarding `N#CC1=C2C(=NC1=O)c1c(Sc3ccc(N)cc3)ccc3c(Sc4ccc(N)cc4)ccc2c13` [3,6-di(4-aminophenylthio)-8-oxo-8 H-acenaphtho[1,2-b]pyrrole-9-carbonitrile], the “downregulation of Mcl-1 protein” value is on record as 0.68.
For the compound `N#CC1=C2C(=NC1=O)c1cccc3c(Sc4ccc(Br)cc4)ccc2c13` [3-(4-bromophenylthio)-8-oxo-8H-acenaphtho[1,2-b]pyrrole-9-carbonitrile], the “downregulation of Mcl-1 protein” value was 0.64.

The data set is the same for the next values; noted with them: 24 hours.
For `N#CC1=C2C(=NC1=O)c1c(Sc3ccc(N)cc3)ccc3c(Sc4ccc(N)cc4)ccc2c13` [3,6-di(4-aminophenylthio)-8-oxo-8 H-acenaphtho[1,2-b]pyrrole-9-carbonitrile], the “downregulation of Mcl-1 protein” value is listed as 0.33.
In the case of `N#CC1=C2C(=NC1=O)c1cccc3c(Sc4ccc(Br)cc4)ccc2c13` [3-(4-bromophenylthio)-8-oxo-8H-acenaphtho[1,2-b]pyrrole-9-carbonitrile], the “downregulation of Mcl-1 protein” value came out at 0.31.

The data set is the same for the next values; noted with them: Western blotting, tumor cells.
In the case of `N#CC1=C2C(=NC1=O)c1c(Sc3ccc(N)cc3)ccc3c(Sc4ccc(N)cc4)ccc2c13` [3,6-di(4-aminophenylthio)-8-oxo-8 H-acenaphtho[1,2-b]pyrrole-9-carbonitrile], the “inhibition against Mcl-1” value was “had the inhibition against Bcl-2 and Mcl-1 proteins”.
Take `N#CC1=C2C(=NC1=O)c1cccc3c(Sc4ccc(Br)cc4)ccc2c13` [3-(4-bromophenylthio)-8-oxo-8H-acenaphtho[1,2-b]pyrrole-9-carbonitrile]: the “inhibition against Mcl-1” value is “had the inhibition against Bcl-2 and Mcl-1 proteins”.

A further data set has as its system Bcl-2. In words: Western blotting, inhibition (downregulation) of Bcl-2 in tumor cells, Example 23. Type of data set: cell-based. Particulars: 2 hours. As to the method:
as §1
Regarding `N#CC1=C2C(=NC1=O)c1c(Sc3ccc(N)cc3)ccc3c(Sc4ccc(N)cc4)ccc2c13` [3,6-di(4-aminophenylthio)-8-oxo-8 H-acenaphtho[1,2-b]pyrrole-9-carbonitrile], the “downregulation of Bcl-2 protein, semiquantitative analysis (band concentration, control = 1)” value (from here on “downregulation of Bcl-2 protein”) was 0.72.
On the same count and under the same terms, in the case of `N#CC1=C2C(=NC1=O)c1cccc3c(Sc4ccc(Br)cc4)ccc2c13` [3-(4-bromophenylthio)-8-oxo-8H-acenaphtho[1,2-b]pyrrole-9-carbonitrile] it was 0.66.

Staying with this data set, now noted: 6 hours.
Consider `N#CC1=C2C(=NC1=O)c1c(Sc3ccc(N)cc3)ccc3c(Sc4ccc(N)cc4)ccc2c13` [3,6-di(4-aminophenylthio)-8-oxo-8 H-acenaphtho[1,2-b]pyrrole-9-carbonitrile], for which the “downregulation of Bcl-2 protein” value is recorded as 0.43.
`N#CC1=C2C(=NC1=O)c1cccc3c(Sc4ccc(Br)cc4)ccc2c13` [3-(4-bromophenylthio)-8-oxo-8H-acenaphtho[1,2-b]pyrrole-9-carbonitrile]: the “downregulation of Bcl-2 protein” value was 0.35.

The same data set, now with this note: Western blotting, tumor cells.
Regarding `N#CC1=C2C(=NC1=O)c1c(Sc3ccc(N)cc3)ccc3c(Sc4ccc(N)cc4)ccc2c13` [3,6-di(4-aminophenylthio)-8-oxo-8 H-acenaphtho[1,2-b]pyrrole-9-carbonitrile], the “inhibition against Bcl-2” value is “had the inhibition against Bcl-2 and Mcl-1 proteins”.
For the compound `N#CC1=C2C(=NC1=O)c1cccc3c(Sc4ccc(Br)cc4)ccc2c13` [3-(4-bromophenylthio)-8-oxo-8H-acenaphtho[1,2-b]pyrrole-9-carbonitrile], the “inhibition against Bcl-2” value is “had the inhibition against Bcl-2 and Mcl-1 proteins”.

In the next data set the test system is Bcl-2. In words: Western blotting, compounds compared with cyclodextrin inclusion compounds and complexes, Example 24. Type of data set: cell-based. The following applies: Table 9; 10 μM or equivalent of inclusion compound, 24 hours. As to the method:
(§2) The cells were inoculated in a 6-well plate (2×10^5 cells/well). In the compound group, the compound 3-thiomorpholinyl-8-oxo-8H-acenaphtho[1,2-b]pyrrole-9-carbonitrile was dissolved into DMSO until the final concentration reached 10 μM. In the inclusion group, γ-cyclodextrin inclusion, which had been dissolved into water and was equivalent to 10 μM of the compound, was added thereinto. 24 hours later, the cells were washed with PBS for three times, then the cell sample was collected and cracked with 1×10^6/50 μl cell lysis solution (62.5 mM Tris-HCL pH 6.8; 2% SDS; 10% glycerol; 50 mM DTT; 0.01% bromphenol blue) at low temperature, then the solution was centrifuged and the protein supernatant was collected. The sample was boiled at 100° C. for 5 minutes and then was separated by electrophoresis on 12% SDS-PAGE and transferred. The interest protein was detected by the corresponding antibody. The expression of the interest protein in the cells was detected by horseradish peroxidase-labeled secondary antibodies in combination with ECL coloration method. […] The concentration of the protein bands in the Western figures were carried out semiquantitative analysis and normalization treatment with KODAK Gel Logic 1500 imaging system software.
For `N#CC1=C2C(=NC1=O)c1c(Sc3ccc(N)cc3)ccc3c(Sc4ccc(N)cc4)ccc2c13` [3,6-di(4-aminophenylthio)-8-oxo-8 H-acenaphtho[1,2-b]pyrrole-9-carbonitrile], the “downregulation of Bcl-2 protein” value is on record as 0.75.
Take `N#CC1=C2C(=NC1=O)c1cccc3c(Sc4ccc(Br)cc4)ccc2c13` [3-(4-bromophenylthio)-8-oxo-8H-acenaphtho[1,2-b]pyrrole-9-carbonitrile]: the “downregulation of Bcl-2 protein” value was 0.67.

The next data set relates to Mcl-1. The description is as above. Type of data set: cell-based. Particulars: Table 8; 10 μM or equivalent of inclusion compound, 24 hours. As to the method: as §2
With `N#CC1=C2C(=NC1=O)c1c(Sc3ccc(N)cc3)ccc3c(Sc4ccc(N)cc4)ccc2c13` [3,6-di(4-aminophenylthio)-8-oxo-8 H-acenaphtho[1,2-b]pyrrole-9-carbonitrile], the “downregulation of Mcl-1 protein” value came out at 0.75.
Still for that read-out and setting: in the case of `N#CC1=C2C(=NC1=O)c1cccc3c(Sc4ccc(Br)cc4)ccc2c13` [3-(4-bromophenylthio)-8-oxo-8H-acenaphtho[1,2-b]pyrrole-9-carbonitrile] it was 0.69.

The subject of the next data set is hepatoma carcinoma cells H22. Nature of the data set: in vivo tumor model, subcutaneous H22 tumor in Kunming mice. Particulars: experimental group 2: peritoneal injection of DMSO solution, 0.3 mg/kg BW every other day, 10 days; tumor volume on the fortieth day. As to the method: The Kunming mice (in China) were randomly divided into groups, with 10 mice in each group. The cultivated hepatoma carcinoma cells H22 were inoculated subcutaneously in the oxter of the mice with 200 μL/mouse. After bearing the cancer cells for five days, the subcutaneous tumor was formed. Then the compound 3-thiomorpholinyl-8-oxo-8H-acenaphtho[1,2-b]pyrrole-9-carbonitrile and γ-cyclodextrin inclusion compound thereof were given by peritoneal injection, and the compound to be detected included by γ-cyclodextrin was given by oral administration. The detection conditions comprise:
Blank control group: the mice were not treated in any manner after the bearing cancer;
Control group (1): the mice were given a peritoneal injection of DMSO solution every other day after the bearing cancer, 10 days in total;
Control group (2): the mice were given a peritoneal injection of cyclodextrin solution every other day after the bearing cancer, 10 days in total;
Experimental group (1): the mice were given a peritoneal injection of DMSO solution equivalent to 0.03 mg/kg BW compound every other day after the bearing cancer, 10 days in total;
Experimental group (2): the mice were given a peritoneal injection of DMSO solution equivalent to 0.3 mg/kg BW compound every other day after the bearing cancer, 10 days in total;
Experimental group (3): the mice were given a peritoneal injection of inclusion compound water solution equivalent to 0.3 mg/kg BW compound every other day after the bearing cancer, 10 days in total;
Experimental group (4): the mice were given an intragastric administration of inclusion compounds water solution equivalent to 0.3 mg/kg BW compound every other day after the bearing cancer, 10 days in total;
During the experimental period, the length-diameter (a) and short diameter (b), which was perpendicular to the length-diameter, of the tumor were detected twice every week. The gross tumor volume was determined according to the formula: ½ab^2. The survival time of the animal was observed. The tumor inhibition rate was calculated by the tumor volume on the fortieth day.
`N#CC1=C2C(=NC1=O)c1c(Sc3ccc(N)cc3)ccc3c(Sc4ccc(N)cc4)ccc2c13` [3,6-di(4-aminophenylthio)-8-oxo-8 H-acenaphtho[1,2-b]pyrrole-9-carbonitrile]: the tumor inhibition rate entry is on record as “about 50%”.
Turning to `N#CC1=C2C(=NC1=O)c1cccc3c(Sc4ccc(Br)cc4)ccc2c13` [3-(4-bromophenylthio)-8-oxo-8H-acenaphtho[1,2-b]pyrrole-9-carbonitrile], the tumor inhibition rate entry is recorded as “about 40%”.

Test system in the next data set: not listed separately
In words: phase solubility experiment (solubility in water before and after cyclodextrin inclusion or complexation). Particulars: thermodynamic from solid, Solubility of compounds, Table 1, compound per se, before inclusion.
Consider `N#CC1=C2C(=NC1=O)c1c(Sc3ccc(N)cc3)ccc3c(Sc4ccc(N)cc4)ccc2c13` [3,6-di(4-aminophenylthio)-8-oxo-8 H-acenaphtho[1,2-b]pyrrole-9-carbonitrile], for which the solubility was 0.31 µM (≈ 0.148 µg/mL).
